Where two headings read alike, the source gives them in different places.

The IC50 is the midpoint of a concentration-inhibition curve.

Assay [1] concerns the target full-length human PRMT1 isoform 1 (GST-tagged) (Homo sapiens, UniProt Q99873). The experiment in a line: PRMT1 Biochemical Assay (3H-SAM Flashplate, peptide substrate). The procedure, abridged: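 Tritiated methyl transfer from 3H-SAM onto biotinylated peptide, captured on streptavidin Flashplates and counted. Baculovirus-expressed GST-PRMT1 and compound were preincubated 30 min at room temperature in Bicine buffer pH 7.6. Cold SAM at 300 uM final ended the reaction.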

Assay [2] addresses full-length human PRMT6 (Flag- and His-tagged) (Homo sapiens, UniProt Q96LA8). As to the kind of experiment: PRMT6 Biochemical Assay (3H-SAM Flashplate, peptide substrate). The note with it: read-out: Biochemical IC50 PRMT6. The procedure, abridged:
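Radiometric methyltransferase readout: tritium transfer onto a biotin-tagged histone H4 36-50 peptide bearing monomethyl K44 (75 nM), captured on streptavidin Flashplates after stopping with 400 uM unlabeled SAM. Enzyme is baculovirus-expressed Flag-PRMT6-His at 1 nM, given 30 min with compound at room temperature before adding 200 nM 3H-SAM and 250 nM cold SAM (pH 7.6 Bicine, 2% DMSO). Percent inhibition relative to max/min (1 mM SAH) controls, curve-fit to IC50.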

The mark [3] stands for this setting: single experiment or average of multiple experiments.

Chain of full-length human PRMT1 isoform 1 (GST-tagged) (Q99873 with tags, fused parts or gaps): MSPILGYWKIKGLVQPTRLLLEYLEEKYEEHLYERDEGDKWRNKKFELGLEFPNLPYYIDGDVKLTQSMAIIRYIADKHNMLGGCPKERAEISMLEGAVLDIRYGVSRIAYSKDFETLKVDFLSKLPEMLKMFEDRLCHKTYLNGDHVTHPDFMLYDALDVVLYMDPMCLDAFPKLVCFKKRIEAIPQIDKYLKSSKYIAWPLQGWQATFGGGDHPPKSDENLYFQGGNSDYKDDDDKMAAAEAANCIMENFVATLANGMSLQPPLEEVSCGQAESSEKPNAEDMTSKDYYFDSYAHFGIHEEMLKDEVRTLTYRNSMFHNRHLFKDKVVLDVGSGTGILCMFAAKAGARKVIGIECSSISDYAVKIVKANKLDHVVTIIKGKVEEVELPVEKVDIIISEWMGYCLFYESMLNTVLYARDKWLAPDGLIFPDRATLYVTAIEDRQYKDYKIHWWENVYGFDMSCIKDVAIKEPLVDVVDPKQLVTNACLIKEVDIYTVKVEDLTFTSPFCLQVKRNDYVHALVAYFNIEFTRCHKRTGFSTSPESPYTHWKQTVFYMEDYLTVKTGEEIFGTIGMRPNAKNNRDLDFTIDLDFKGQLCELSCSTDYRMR
Chain of full-length human PRMT6 (Flag- and His-tagged) (Q96LA8 with tags, fused parts or gaps): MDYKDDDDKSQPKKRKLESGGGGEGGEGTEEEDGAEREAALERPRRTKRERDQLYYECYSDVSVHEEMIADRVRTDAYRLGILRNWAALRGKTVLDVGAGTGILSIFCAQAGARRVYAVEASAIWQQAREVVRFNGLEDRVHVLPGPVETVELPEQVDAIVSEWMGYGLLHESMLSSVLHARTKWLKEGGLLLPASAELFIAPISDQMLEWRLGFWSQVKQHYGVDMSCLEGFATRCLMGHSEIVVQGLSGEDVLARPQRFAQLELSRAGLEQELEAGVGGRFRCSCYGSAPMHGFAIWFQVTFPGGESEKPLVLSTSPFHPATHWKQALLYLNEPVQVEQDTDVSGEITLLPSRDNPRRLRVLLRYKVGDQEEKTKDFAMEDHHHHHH

As for `CNCCN(C)Cc1c[nH]nc1C1CCC(C)(C)CC1` [Compound 52], the IC50 in assay [1] was below 100 nM; in assay [1] (setting [3]), 4.7 nM; in assay [2], below 100 nM; in assay [2] (setting [3]), 24.3 nM.
Take `CNCCN(C)Cc1c[nH]nc1C#Cc1ccc(C(C)(C)C)cc1` [Compound 2]: the results for the IC50 in assay [1] (setting [3]) and in assay [2] (setting [3]) were 10 nM and 40 nM, respectively.
Turning to `CNCCN(C)Cc1c[nH]nc1C1CCC(Oc2ccccc2)CC1` (centres unmarked) [Compound 67], the IC50 in assay [1] was below 100 nM; in assay [1] (setting [3]) it was 7.8 nM; in assay [2], below 100 nM; in assay [2] (setting [3]), 18 nM.
Turning to `CNCCN(C)Cc1c[nH]nc1/C=C/c1ccc(C(F)(F)F)cc1` [Compound 6], the IC50 is 40 nM in assay [1] (setting [3]) and 30 nM in assay [2] (setting [3]).
Regarding `CNCCN(C)Cc1c[nH]nc1[C@H]1CCC(C)(C)[C@@H](C(=O)NCCOC)C1` [Compound 268], the IC50 in assay [1] is below 100 nM; in assay [1] (setting [3]) it was 68.6 nM; in assay [2], 101 to 1000 nM; in assay [2] (setting [3]), 141 nM.
For `CNCCN(C)Cc1c[nH]nc1C1CC(COC)C(C)(C)C(COC)C1` (centres unmarked) [Compound 86], in that order: 1010 to 3000 nM, 1940 nM, 3010 to 10000 nM and 3410 nM.
For `CN(CCN)Cc1c[nH]nc1C1=CCOCC1` [Compound 10], the results for the half-maximal inhibitory concentration (IC50) in assay [1] (setting [3]) and in assay [2] (setting [3]) were 390 nM and 310 nM, respectively.
Consider `CNCCN(C)Cc1c[nH]nc1C1CCC(C)(C)C(C(=O)NCc2ccccc2)C1` (centres unmarked) [Compound 92], for which the 50% inhibitory concentration (IC50) is below 100 nM in assay [1], 20.9 nM in assay [1] (setting [3]), below 100 nM in assay [2] and 49 nM in assay [2] (setting [3]).
As for `CNCCN(C)Cc1c[nH]nc1C1CCC(C)(C)C(C(=O)NCC(C)C)C1` (centres unmarked) [Compound 90], the IC50 in assay [1] was below 100 nM; in assay [1] (setting [3]), 34.4 nM; in assay [2], 101 to 1000 nM; in assay [2] (setting [3]) it was 122 nM.
For `CNCCN(C)Cc1c[nH]nc1C1CCC(COCCOC)(COCCOC)CC1` [Compound 60], in that order: below 100 nM, 27.5 nM, 101 to 1000 nM and 155 nM.
Regarding `CN(CCN)Cc1c[nH]nc1C1CCCCC1` [Compound 22], the figures for the IC50 in assay [1] (setting [3]) and in assay [2] (setting [3]) were 10 nM and 20 nM, respectively.
For `COc1cccc(/C=C/c2n[nH]cc2CN(C)CCN)c1` [Compound 17], in that order: 10 nM and 50 nM.
Turning to `CNCCN(C)Cc1c[nH]nc1C1CCC2(CCCCC2)CC1` [Compound 46], the concentration for half-maximal inhibition (IC50) in assay [1] was below 100 nM; in assay [1] (setting [3]), 7.9 nM; in assay [2], below 100 nM; in assay [2] (setting [3]), 12.2 nM.
`CNCCN(C)Cc1c[nH]nc1C1CCC2(CCCC2)CC1` [Compound 48]: the IC50 was below 100 nM in assay [1], 7.4 nM in assay [1] (setting [3]), below 100 nM in assay [2] and 17.8 nM in assay [2] (setting [3]).
In the case of `CN(CCN)Cc1c[nH]nc1/C=C/c1cccc(C(F)(F)F)c1` [Compound 16], the concentration for half-maximal inhibition (IC50) in assay [1] (setting [3]) worked out at 20 nM; in assay [2] (setting [3]), 150 nM.
As for `CNCCN(C)Cc1cn(C)nc1C1CCC2(CCCC2)CC1` [Compound 47], the 50% inhibitory concentration (IC50) is below 100 nM in assay [1], 4.3 nM in assay [1] (setting [3]), below 100 nM in assay [2] and 17.3 nM in assay [2] (setting [3]).
In the case of `CNCCN(C)Cc1c[nH]nc1C1CCC(C)(C)[C@H](OCC2CCOCC2)C1` (stereo partly drawn) [Compound 273, ({3-[(3R)-4,4-dimethyl-3-(oxan-4-ylmethoxy)cyclohexyl]-1H-pyrazol-4-yl}methyl)(methyl)[2-(methylamino)ethyl]amine], the half-inhibitory concentration (IC50) in assay [1] is below 100 nM; in assay [1] (setting [3]) it was 11.4 nM; in assay [2] it was below 100 nM; in assay [2] (setting [3]) it was 40.5 nM.
With `CNCCN(C)Cc1c[nH]nc1[C@H]1CCC(C)(C)[C@@H](C(=O)NCCCOC)C1` [Compound 270], the IC50 in assay [1] is below 100 nM; in assay [1] (setting [3]), 62.5 nM; in assay [2] it was 101 to 1000 nM; in assay [2] (setting [3]) it was 149 nM.
`CC(C)Cc1n[nH]cc1CN(C)CCN` [Compound 28, N^1-((3-iso-butyl-1H-pyrazol-4-yl)methyl)-N^1-methylethane-1,2-diamine]: the half-maximal inhibitory concentration (IC50) worked out at 180 nM in assay [1] (setting [3]) and 80 nM in assay [2] (setting [3]).
With `CN(CCN)Cc1n[nH]cc1C1CCCCC1` [Compound 33], the half-inhibitory concentration (IC50) in assay [1] (setting [3]) and in assay [2] (setting [3]) was 20 nM in each case.
In the case of `CNCCN(C)Cc1c[nH]nc1C1CCC(COC)CC1` (centres unmarked) [Compound 53], the concentration for half-maximal inhibition (IC50) in assay [1] is below 100 nM; in assay [1] (setting [3]) it was 10.5 nM; in assay [2] it was below 100 nM; in assay [2] (setting [3]), 38 nM.
As for `CN(CCN)Cc1c[nH]nc1/C=C/c1cc(F)cc(F)c1` [Compound 15], the IC50 in assay [1] (setting [3]) was determined as 50 nM; in assay [2] (setting [3]), 40 nM.
Turning to `CNCCN(C)Cc1c[nH]nc1C1CCC(OCCOC)CC1` (centres unmarked) [Compound 58], the IC50 was below 100 nM in assay [1], 26.5 nM in assay [1] (setting [3]), below 100 nM in assay [2] and 108 nM in assay [2] (setting [3]).
As to `Cc1ccc(/C=C/c2n[nH]cc2CN(C)CCN)cc1` [Compound 8], the 50% inhibitory concentration (IC50) was determined as 20 nM in assay [1] (setting [3]) and 40 nM in assay [2] (setting [3]).
For `CNCCN(C)Cc1c[nH]nc1C1CCC(C)(C)[C@H](OCCCOC)C1` (some centres unmarked) [Compound 272], the concentration for half-maximal inhibition (IC50) was below 100 nM in assay [1], 12.4 nM in assay [1] (setting [3]), below 100 nM in assay [2] and 73.9 nM in assay [2] (setting [3]).
Consider `CN(CCN)Cc1c[nH]nc1C1CC1` [Compound 12], for which the IC50 in assay [1] (setting [3]) was 1580 nM; in assay [2] (setting [3]), 1080 nM.
For the molecule `CCC(CC)OC1CCC(c2n[nH]cc2CN(C)CCNC)CC1` (centres unmarked) [Compound 70], the IC50 in assay [1] was below 100 nM; in assay [1] (setting [3]), 9.2 nM; in assay [2], below 100 nM; in assay [2] (setting [3]) it was 44 nM.
Take `CNCCN(C)Cc1c[nH]nc1C1CCN(C(=O)Cc2ccccc2)CC1` [Compound 32]: the IC50 in assay [1] (setting [3]) and in assay [2] (setting [3]) was 20 nM each time.
Take `CN(CCN)Cc1c[nH]nc1/C=C/c1cc(C(F)(F)F)cc(C(F)(F)F)c1` [Compound 14]: the IC50 worked out at 90 nM in assay [1] (setting [3]) and 930 nM in assay [2] (setting [3]).
Take `CCOCC1CC(c2n[nH]cc2CN(C)CCNC)CC(COCC)C1(C)C` (centres unmarked) [Compound 87]: the IC50 in assay [1] is 101 to 1000 nM; in assay [1] (setting [3]), 564 nM; in assay [2], 3010 to 10000 nM; in assay [2] (setting [3]) it was 3730 nM.
Consider `CNCCN(C)Cc1c[nH]nc1C1CCC(C)(C)C(C(=O)NCCC(C)C)C1` (centres unmarked) [Compound 91], for which the IC50 is below 100 nM in assay [1], 16.7 nM in assay [1] (setting [3]), below 100 nM in assay [2] and 63.1 nM in assay [2] (setting [3]).
Turning to `CC(C)c1n[nH]cc1CN(C)CCN` [Compound 21], the half-inhibitory concentration (IC50) in assay [1] (setting [3]) came to 1490 nM; in assay [2] (setting [3]), 670 nM.
Take `CNCCN(C)Cc1c[nH]nc1C1CCC(CCOC)CC1` (centres unmarked) [Compound 55]: the half-maximal inhibitory concentration (IC50) in assay [1] is below 100 nM; in assay [1] (setting [3]) it was 12.8 nM; in assay [2], below 100 nM; in assay [2] (setting [3]) it was 40.4 nM.
